{"source": "paper PMC7335187", "about": "“Super-assembly of ER-phagy receptor Atg40 induces local ER remodeling at contacts with forming autophagosomal membranes” (Nature Communications, 2020)", "target": "Atg8 (Saccharomyces cerevisiae, UniProt P38182, K26P)", "sequence (P38182 1-116 K26P)": "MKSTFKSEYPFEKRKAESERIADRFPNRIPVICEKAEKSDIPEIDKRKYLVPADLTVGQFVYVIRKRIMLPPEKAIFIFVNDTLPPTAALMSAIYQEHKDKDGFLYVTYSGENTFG", "assay": "biochemical", "format": "binding", "note": "Where a SMILES comes first, the peptide text is derived from it.", "method": "ITC experiments were performed using Microcal iTC200 calorimeter (Malvern Panalytical), with stirring at 1000 rpm at 25 °C. Atg40, FAM134B, SEC62, and RTN3 peptides were prepared as injection samples from the syringe. […] In total, 200 μl Atg8, LC3A, LC3B, LC3C, GABARAP, GABARAPL1, and GABARAPL2 with 10 times lower concentration than the syringe samples were filled in the cell. […] The titration involved 18 injections of 2 μl of the syringe sample at intervals of 120 s into a cell after one injection of 0.4 μl of syringe sample. Data sets obtained from the titration of the same syringe sample to the cell filled with buffer were used as reference data for subtraction of heat of dilution. MicroCal Origin 7.0 software was used for data analysis. Thermal measurement of the first injection of the syringe samples was removed from the analysis."}
{"compound": "CC[C@H](C)[C@H](NC(=O)[C@H](CC(=O)O)NC(=O)[C@H](CCC(=O)O)NC(=O)[C@H](CCSC)NC(=O)[C@H](Cc1ccccc1)NC(=O)[C@H](CC(=O)O)NC(=O)[C@H](Cc1ccc(O)cc1)NC(=O)[C@H](CC(=O)O)NC(=O)[C@H](CC(N)=O)NC(=O)[C@@H]1CCCN1C(=O)[C@H](Cc1ccccc1)NC(=O)[C@H](CCC(=O)O)NC(=O)[C@@H]1CCCN1C(=O)CN)C(=O)N[C@@H](CC(C)C)C(=O)N[C@@H](CC(=O)O)C(=O)N[C@@H](CCC(=O)O)C(=O)N[C@H](C(=O)O)[C@@H](C)O", "note": "[Atg40^237-252 WT] (H-GPEFPNDYDFMEDILDET-OH)", "values": [{"measurement": "Kd", "value": "570 ± 510", "unit": "nM"}, {"measurement": "N (site), stoichiometry of binding", "setting": "ITC, 25 °C, peptide in syringe 2.0 or 1.8 mM, Atg8 in cell 10 times lower, single-site model, ± fitting error", "value": "0.90 ± 0.03"}]}
